Source: patent publication US12404332B2, “Methods for diagnosing and treating cancers” (Research Development Foundation, priority 2020, dated 2025)

What was measured:
[1] = system: PD-1 and β2M on OVCAR5 (human ovarian) cells; assay: PD-1 and B2M expression on OVCAR5 cells; format: cell-based
Method: Tumor and ascites were collected for flow cytometry analyses. Summary graph of CD45-PD-L1 cell percentage and MFI. FIG. 33D, PD-1 and B2M expression on OVCAR5 (human ovarian) cells treated with (+) or without (−) chlorambucil for 48 hours.
Flow cytometry: Mice were sacrificed by cervical dislocation after induction of deep isoflurane anesthesia. ID8agg tumors were collected and cells were stained as described (Derup et al., 2020) using LSR II hardware and analyzed by FACS Diva (BD Bioscience) or Flow Jo software (Flow Jo, LLC). Anti-mouse (clone 10F.9G2) and human (clone 29E.2A3) PD-L1 [both PE/Cy7, Cat #124314 (mouse) 329718 (human)] were matched with isotype control. Apoptosis assessment used Annexin V and propidium iodide (Thermo Scientific) per manufacturer instruction.

ID8agg tumors = format: in vivo, mouse
From the text: Mice and in vivo treatments: Wild-type (WT) C57BL/6 mice NSG were purchased from Jackson Labs (Bar Harbor, ME), bred in our animal facility and used at 7-20 weeks old. All mice were given ad libitum water and food and housed under specific pathogen-free conditions. Mice used here were matched for sex and age in each experiment. 1×10^5 control or PD-L1^KOB16 cells were given subcutaneously (SQ, both sexes). 4×10^6 control or PD-L1^lo ID8agg cells in log growth phase were given intraperitoneally (females only). B16 tumor growth was measured with Vernier calipers and volume was calculated as (length×width^2)/2. Intraperitoneal ID8agg tumor growth was determined by IVIS Lumina Imaging System (Perkin Elmer; Waltham, MA) 15 minutes after i.p. injection of 3 mg of PBS-dissolved d-luciferin K+ (Gold Biotechnology; St. Louis, MO) with 30 second exposures, medium binning, and F/stop=1. Identical regions of interest were drawn over each subject's abdomen and average radiance (photons/see/cm2/sr) was quantified with Living Image software version 4.2. Body weight was measured every week for PD-L1^lo ID8agg mice as a surrogate for tumor growth, and tumors were weighed at end-experiment in confirmation. Survival was determined as >1500 mm^3 for SQ tumors and distress or >20% mouse weight gain for PD-L1^lo ID8agg tumors. Intraperitoneal injection of chlorambucil was given at indicated doses (optimized for each tumor and treatment condition in preliminary assessments not shown) for 3 treatment cycles starting 7 days after tumor cell challenge. Each chlorambucil cycle was 5 consecutive days of a single injection followed by two days of rest. αPD-L1 (clone 10F.9G2) or respective isotype control was injected intraperitoneally at 100 μg/mouse every 5 days starting on day 7 after tumor challenge for times indicated.

PD-L1 in OVCAR5 cells = assay: PD-L1 mRNA, protein and ubiquitination in OVCAR5 cells; format: cell-based, human
Method: FIGS. 39A-C: CAMB reduces PD-L1 through ubiquitination. FIG. 39A, RT-qPCR for PD-L1 mRNA in OVCAR5 and ID8agg cells treated with (+) or without (−) chlorambucil for 48 hours. (n=4). FIG. 39B, Western blot for PD-L1 protein in OVCAR5 cells with (+) or without (−) MG132 for 6 or 20 hours. (upper panel). PD-L1 expression in OVCAR5 cells treated with chlorambucil 48 hours and/or MG132 for 6 hours (lower panel). FIG. 39C, Ubiquitinated PD-L1 was immunoprecipitated (IP) and subjected to Western blot analysis with anti-ubiquitin (Ub) antibody. Cells were treated with chlorambucil for indicated times prior to ubiquitination analysis.
Western blotting and immunoprecipitation: To prepare whole cell lysates, cells were harvested and lysed in RIPA (radioimmunoprecipitation assay) buffer plus 1 mM phenylmethylsulphonyl fluoride and Halt protease/phosphatase inhibitor cocktail (Thermo Scientific) at 4° C. Protein concentrations were measured by BCA Protein Assay Kit (Thermo Scientific). Protein was run on precast 4-15% sodium dodecyl sulfate polyacrylamide gels (Bio-Rad), transferred to polyvinylidene fluoride membranes (GE Water and Process Technologies), and then blocked in 5% non-fat milk for 1 hour at room temperature. The membranes were then incubated with 1:1000 diluted primary antibodies against indicated proteins (Cell Signaling). Specific antibody binding was detected by chemiluminescence using Western Lightening Plus regent (Perkin Elmer). Cells for (co) immunoprecipitation experiments were seeded in 15-cm dishes and cultured as described, using 6 million cells per immunoprecipitation reaction. For protein ubiquitination, cells were lysed in denaturing buffer (50 mM Tris-HCl, 0.5 mM EDTA and 1% SDS) followed by heating at 95° C. for 10 minutes and then quenched with 9 volumes of quenching buffer (0.5% Triton X-100, 20 mM Tris-HCl (pH 8.0), 137 mM NaCl, 10% glycerol, 2 mM EDTA). Protease inhibitor cocktail (Roche) was added fresh to all buffers. Cell lysates were incubated on a rotator for 30 minutes at 4° C., and then centrifuged at 20,000 g for 15 minutes at 4° C. Supernatants were subsequently incubated with anti-PD-L1 antibody overnight and processed using Dynabeads Protein G for Immunoprecipitation (Thermo Fisher Scientific). The final eluate was processed and Western blotting was performed.
Quantitative Real-Time Reverse Transcriptase Polymerase Chain Reaction: Total RNA was isolated from homogenized whole lung tissue with Trizol reagent (Invitrogen) according to manufacturer instructions. […] Quantitative PCR (qPCR) was conducted using the Bio-Rad Real-Time PCR System (Applied Biosystems), amplified with transcript-specific primers with SYBR Green (Thermo Scientific), according to manufacturer instructions. […]

SMILES: O=C(O)CCCc1ccc(N(CCCl)CCCl)cc1 [chlorambucil]
- PD-1 and β2M on the cell surface [1]: Upregulation
- sensitization of ID8agg to αPD-L1 (ID8agg tumors; CAMB dose ineffective as a single agent): sensitized ID8agg to αPD-L1
- tumor PD-L1 in vivo (ID8agg tumors; ID8agg challenge, ascites): reduced tumor PD-L1 in ascites
- PD-L1^lo ID8agg growth (ID8agg tumors; WT mice, dose and schedule as for ID8agg): unable to suppress
- single agent efficacy at the dose used for the combination (ID8agg tumors; mouse, in vivo): ineffective as a single agent
- treatment of tumors (ID8agg tumors; severely immunodeficient NSG mice, ID8agg): effectively treated both
- mouse survival (ID8agg tumors; wild type mice, ID8agg): prolonged mouse survival
- tumor volume (ID8agg tumors; wild type mice, ID8agg): significantly reduced tumor volume
- amount of ubiquitinated PD-L1 (PD-L1 in OVCAR5 cells; Co-IP): increased
- PD-L1 mRNA (PD-L1 in OVCAR5 cells; OVCAR5 cells): little changed
